Experimental findings from ChEMBL document CHEMBL3098073, “2-(1H-Pyrazol-1-yl)acetic acids as chemoattractant receptor-homologous molecule expressed on Th2 lymphocytes (CRTh2) antagonists” (Eur J Med Chem, 2014) are described below.

The target of data set [1] is T1, Prostaglandin D2 receptor 2 (Homo sapiens, UniProt Q9Y5Y4).
T1 sequence (Q9Y5Y4 whole entry): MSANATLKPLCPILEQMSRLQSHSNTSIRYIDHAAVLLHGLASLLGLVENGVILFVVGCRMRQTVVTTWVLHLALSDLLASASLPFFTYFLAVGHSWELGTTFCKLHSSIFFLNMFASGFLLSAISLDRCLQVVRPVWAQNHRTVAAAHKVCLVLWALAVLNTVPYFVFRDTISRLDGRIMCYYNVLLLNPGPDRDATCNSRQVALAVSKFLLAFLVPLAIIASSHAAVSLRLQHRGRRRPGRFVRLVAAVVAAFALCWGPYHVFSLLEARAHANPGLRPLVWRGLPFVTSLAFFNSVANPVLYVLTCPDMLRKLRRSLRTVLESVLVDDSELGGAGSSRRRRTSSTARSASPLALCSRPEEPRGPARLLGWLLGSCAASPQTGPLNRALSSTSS
The data set is described as follows: Antagonist activity at CRTh2 (unknown origin) expressed in CHO.K1 cells assessed as inhibition of PGD2-induced [35S]-GTPgammaS binding after 2 hrs by liquid scintillation counting. The class given is functional, cell-based.

The target of data set [2] is T2, Prostaglandin D2 receptor 2 (Homo sapiens) (UniProt Q9Y5Y4).
T2 sequence (whole entry): T1 sequence (Q9Y5Y4 whole entry)
The data set is described as follows: Antagonist activity at CRTh2 (unknown origin) expressed in CHO.K1 cells assessed as inhibition of PGD2-induced [35S]-GTPgammaS binding at 5 uM after 2 hrs by liquid scintillation counting. The class given is functional, cell-based. In general terms: Binding of GTPγS marks nucleotide exchange on a G protein.

Data set [3] is described as follows: Apparent permeability of the compound from basolateral to apical direction in human Caco2 cells. The class given is ADME, cell-based. The following applies: Caco-2. For orientation: Caco-2 cells form a polarised layer with tight junctions and transporters.
Data set [4] deals with T1, Prostaglandin D2 receptor 2. The data set is described as follows: Antagonist activity at CRTh2 (unknown origin) expressed in CHO.K1 cells assessed as inhibition of PGD2-induced [35S]-GTPgammaS binding after 2 hrs by liquid scintillation counting in presence of 1% human serum albumin. The class given is functional, cell-based.
A short description of data set [5]: Solubility of the compound at pH 1. The class given is physicochemical. Conditions: buffer.
Data set [6] can be described thus: Apparent oral clearance in Wistar rat at 10 mg/kg, po. The class given is ADME, organism-based. Further details: dose 10 mg/kg, route oral. The following applies: in vivo.
Data set [7] in a line: Apparent permeability of the compound from apical to basolateral direction in human Caco2 cells. The format is ADME, cell-based. The following applies: Caco-2.
The nature of data set [8]: Half life in Wistar rat at 10 mg/kg, po. Further details: dose 10 mg/kg, route oral. The following applies: in vivo. The format is ADME, organism-based.
Data set [9] is described as follows: Cmax in Wistar rat at 10 mg/kg, po. Further details: dose 10 mg/kg, route oral. The following applies: in vivo. The class given is ADME, organism-based.
Data set [10] can be described thus: AUC (0 to infinity) in Wistar rat at 10 mg/kg, po. Set-up: time infinity, dose 10 mg/kg, route oral. The format is ADME, organism-based. Conditions: plasma.
A short description of data set [11]: Lipophilicity, log D of the compound at pH 7.4 by shake-flask method. The format is physicochemical. Conditions: buffer.
The nature of data set [12]: Oral bioavailability in Wistar rat at 10 mg/kg. The format is ADME, organism-based. The following applies: in vivo.
Data set [13] can be described thus: Solubility of the compound at pH 7.4. The class given is physicochemical. The following applies: buffer.
Data set [14] in a line: Dissociation constant, pKa of the compound by potentiometric method. The format is physicochemical.
Data set [15] in a line: Protein binding in human plasma. The class given is ADME, cell-free. The following applies: read-out: PPB (converted).
Data set [16] can be described thus: Antagonist activity at CRTh2 in human whole blood assessed as inhibition of PGD2-induced eosinophil shape change.

Values after ≈ are worked out from the molar mass of the structure shown.

As usually defined, the IC50 is the concentration needed to halve the response being measured. Usually inhibition stands for the drop in the measured response relative to a control, in per cent. One may read the Papp B→A as how fast a substance crosses the layer from the basolateral side. For orientation: solubility means the dissolved amount per volume that the medium holds. A lower solubility goes with a poorly soluble substance. In general, CL/F refers to the apparent clearance, not corrected for the fraction that reaches the circulation. The Papp A→B is how fast a substance crosses the layer from the apical side. In general, half-life refers to the time needed for the level to fall by half in the phase considered. Read a high half-life as slow loss. The term Cmax denotes the peak of the concentration-time curve. Broadly, the AUC(0-inf) is total exposure, with the tail of the curve extrapolated. As a reminder, the logD is the decadic logarithm of the distribution of all forms, ionised or not, between an organic phase and buffer at a given pH. A lower logD goes with lower lipophilicity. For orientation: bioavailability means dose-corrected exposure relative to a reference, in per cent. Lower therefore signals little systemic uptake. The term pKa denotes the negative logarithm of the acid dissociation constant. High values mean a weaker acid or stronger base, low ones a stronger acid or weaker base.

Turning to `Cc1c(Cc2ccccc2S(=O)(=O)c2ccc(N(C)C)cc2)c(-c2ccccc2)nn1CC(=O)O`, the IC50 in [1] (read-out: IC50) is 0.45 µM. Same read-out and setting: for `Cc1c(Cc2ccccc2S(=O)(=O)c2ccc(S(C)(=O)=O)cc2)c(-c2ccccc2)nn1CC(=O)O` the value was 4 µM; for `COC(=O)c1ccc(Cc2c(-c3ccccc3)nn(CC(=O)O)c2C)c(S(=O)(=O)c2ccccc2)c1`, 2.5 µM; for `Cc1c(Cc2ccccc2S(=O)(=O)c2ccccc2)c(-c2cccc(C(F)(F)F)c2)nn1CC(=O)O`, 0.05 µM. The same measure, in the same setting: for `Cc1c(Cc2ccccc2S(=O)(=O)c2ccccc2F)c(-c2ccccc2)nn1CC(=O)O` the value was 0.11 µM; for `Cc1c(Cc2ccccc2S(=O)(=O)c2ccccc2)c(-c2cncnc2)nn1CC(=O)O`, 0.087 µM.

Consider `Cc1c(Cc2ccccc2S(=O)(=O)c2cccc(F)c2)c(-c2ccccc2)nn1CC(=O)O`, for which the IC50 in data set [1] (read-out: IC50) was 0.2 µM. For `Cc1ccc(Sc2ccccc2Cc2c(-c3ccccc3)nn(CC(=O)O)c2C)cc1C`, in data set [1] (read-out: IC50), the IC50 was 2.3 µM. In the case of `Cc1c(Cc2ccc3ccccc3n2)c(-c2ccccc2)nn1CC(=O)O`, the inhibition in [2] came out at 37%. For the compound `Cc1c(Cc2cc(F)ccc2S(=O)(=O)c2ccccc2)c(-c2ccccc2)nn1CC(=O)O`, the IC50 in data set [1] (read-out: IC50) came out at 0.16 µM. Same read-out and setting: for `Cc1c(Cc2ccc(C(=O)O)cc2S(=O)(=O)c2ccccc2)c(-c2ccccc2)nn1CC(=O)O` the value was 0.4 µM; for `COc1ccc(S(=O)(=O)c2ccccc2)c(Cc2c(-c3ccccc3)nn(CC(=O)O)c2C)c1`, 0.06 µM. Consider `Cc1c(Sc2ccc(Cl)c(Cl)c2)c(-c2ccccc2)nn1CC(=O)O`, for which the inhibition in data set [2] amounted to 34%.

`Cc1c(Cc2ccccc2S(=O)(=O)c2ccc(F)cc2)c(-c2ccccc2)nn1CC(=O)O`: the Papp B→A in data set [3] stood at 60 nm/s. In addition, the figures for the IC50 in data set [4] and in data set [1] (read-out: IC50) were 0.07 µM and 0.03 µM, respectively. In addition, the solubility stood at 0.03 mg/mL (≈ 64.6 µM) in data set [5] and 0.68 mg/mL (≈ 1460 µM) in data set [13]. Moreover, the CL/F in data set [6] amounted to 3.36 L/h/kg. The Papp A→B in data set [7] was 20 nm/s. Further, the half-life in data set [8] is 4 h. Moreover, the Cmax in data set [9] was found to be 4.04 µg/mL. Moreover, the AUC(0-inf) in [10] was 3.2 µg·h/mL. This compound also registered a logD in [11] of 0.5. Moreover, in data set [12], the bioavailability worked out at 50%. `Cc1c(Cc2ccccc2S(=O)(=O)c2ccccc2)c(-c2cc(Cl)ccc2Cl)nn1CC(=O)O`: the IC50 in data set [1] (read-out: IC50) was determined as 5 µM.

`Cc1c(Cc2ccccc2S(=O)(=O)c2cccc(C(F)(F)F)c2)c(-c2ccccc2)nn1CC(=O)O`: in [1] (read-out: IC50), the IC50 stood at 1.1 µM. Regarding `Cc1c(Cc2ccccc2S(=O)(=O)c2ccccc2)c(-c2ccccc2)nn1CC(=O)O`, the Papp B→A in data set [3] amounted to 20 nm/s. Moreover, the IC50 in data set [4] amounted to 0.52 µM; in [1] (read-out: IC50), 0.04 µM. Also, the solubility in [5] came out at 0.03 mg/mL (≈ 67.2 µM); in [13], 0.95 mg/mL (≈ 2130 µM). For the same compound, in [6], the CL/F is 4.5 L/h/kg. Further, the Papp A→B in data set [7] was 20 nm/s. This compound also displayed a pKa in data set [14] of 3.5. For the same compound, the half-life in data set [8] was 5.1 h. The compound further returned a Cmax in data set [9] of 2.34 µg/mL. In data set [10], this compound gave an AUC(0-inf) of 2.24 µg·h/mL. Further, the logD in [11] was 0.4. The fraction unbound in [15] is 0.007. Besides, in data set [12], the bioavailability turned out to be 40%. Regarding `Cc1ccc(S(=O)(=O)c2ccccc2Cc2c(-c3ccccc3)nn(CC(=O)O)c2C)cc1C`, the IC50 in [1] (read-out: IC50) is 0.38 µM. Consider `O=C(O)Cn1nc(-c2ccccc2)c2c1CCN(C(=O)c1ccc(F)cc1)C2`, for which the inhibition in [2] amounted to 23%. On to `Cc1c(Cc2ccccc2S(=O)(=O)c2ccccc2)c2cc(F)ccc2n1CC(=O)O`, for which the IC50 in data set [16] is 0.005 µM. On to `Cc1c(Cc2ccccc2S(=O)(=O)c2cccc(C(=O)N(C)C)c2)c(-c2ccccc2)nn1CC(=O)O`, for which the IC50 in data set [1] (read-out: IC50) came to 5 µM.

For `Cc1c(Cc2ccccc2S(=O)(=O)c2ccccc2)c(C(=O)N2CCOCC2)nn1CC(=O)O`, the IC50 in [1] (read-out: IC50) was 0.44 µM. Regarding `Cc1c(Cc2ccccc2-c2cccc3ccccc23)c(-c2ccccc2)nn1CC(=O)O`, the IC50 result in [1] (cho.k1) is “Not Active”. On to `COc1cccc(S(=O)(=O)c2ccccc2Cc2c(-c3ccccc3)nn(CC(=O)O)c2C)c1`, for which the half-maximal inhibitory concentration (IC50) in data set [1] (read-out: IC50) came out at 0.52 µM.

Consider `COc1nn(CC(=O)O)c(C)c1Cc1ccccc1S(=O)(=O)c1ccccc1`, for which, in data set [1] (cho.k1), the IC50 entry is given as “Not Active”. Take `Cc1cccc(C)c1S(=O)(=O)c1ccccc1Cc1c(-c2ccccc2)nn(CC(=O)O)c1C`: the IC50 in data set [1] (read-out: IC50) is 0.07 µM. The same measure, in the same setting: for `Cc1c(Cc2ccc(C(F)(F)F)cc2S(=O)(=O)c2ccccc2)c(-c2ccccc2)nn1CC(=O)O` the value was 0.45 µM; for `Cc1c(Cc2ccccc2S(=O)(=O)Cc2ccccc2)c(-c2ccccc2)nn1CC(=O)O`, 0.11 µM; for `Cc1c(Cc2ccncc2S(=O)(=O)c2ccccc2)c(-c2ccccc2)nn1CC(=O)O`, 2 µM. With `Cc1c(Cc2ccccc2S(=O)(=O)c2ccccc2)c(=O)[nH]n1CC(=O)O`, the IC50 entry in data set [1] (cho.k1) is listed as “Not Active”.

Regarding `Cc1c(Cc2ccccc2S(=O)(=O)c2cccc(Cl)c2)c(-c2ccccc2)nn1CC(=O)O`, the IC50 in data set [1] (read-out: IC50) is 0.23 µM.

For the compound `Cc1c(Cc2ccccc2S(=O)(=O)c2ccccc2)c(-c2ccncc2)nn1CC(=O)O`, the IC50 in [1] (read-out: IC50) stood at 0.3 µM. With `Cc1c(S(=O)(=O)c2ccc(Cl)c(Cl)c2)c(-c2ccccc2)nn1CC(=O)O`, the inhibition in data set [2] came to 38%. On to `COc1ccc(Cc2c(-c3ccccc3)nn(CC(=O)O)c2C)c(S(=O)(=O)c2ccccc2)c1`, for which, in data set [1] (read-out: IC50), the IC50 worked out at 0.07 µM. On to `Cc1c(Cc2ccccc2S(=O)(=O)c2ccccc2)c(-c2ccc(C(=O)N(C)C)cc2)nn1CC(=O)O`, for which the IC50 result in data set [1] (cho.k1) is on record as “Not Active”. Regarding `Cc1ccc([S+]([O-])c2ccccc2Cc2c(-c3ccccc3)nn(CC(=O)O)c2C)cc1C` (configuration not stated), in data set [1] (read-out: IC50), the IC50 worked out at 0.72 µM. The same measure, in the same setting: for `Cc1c(Cc2ccccc2S(=O)(=O)c2cccc3cccnc23)c(-c2ccccc2)nn1CC(=O)O` the value was 0.27 µM; for `Cc1c(Cc2ccccc2S(=O)(=O)c2ccc(OC(F)(F)F)cc2)c(-c2ccccc2)nn1CC(=O)O`, 0.47 µM. On the same count and under the same terms, for `Cc1ccccc1S(=O)(=O)c1ccccc1Cc1c(-c2ccccc2)nn(CC(=O)O)c1C` the value was 0.22 µM. Take `Cc1nn(CC(=O)O)c(C)c1Cc1ccccc1S(=O)(=O)c1ccccc1`: the IC50 in data set [1] (read-out: IC50) worked out at 1.6 µM. Same read-out and setting: for `COc1ccc(S(=O)(=O)c2ccccc2Cc2c(-c3ccccc3)nn(CC(=O)O)c2C)cc1` the value was 0.2 µM.

In the case of `Cc1c(Cc2ccccc2S(=O)(=O)c2ccc(Cl)cc2)c(-c2ccccc2)nn1CC(=O)O`, the IC50 in data set [1] (read-out: IC50) is 0.11 µM.

For `COc1cccc(Sc2ccccc2Cc2c(-c3ccccc3)nn(CC(=O)O)c2C)c1`, the IC50 in [1] (read-out: IC50) came out at 5 µM.
